From US20050261332A1, “Sulfonamides and uses thereof” (priority 2004, published 2005)

The compounds below were run against T1, GHS-R (Homo sapiens, UniProt Q92847) (assay: GHS-R competition binding assay (Ki of GHS-R antagonizing compounds)).
T1 construct: expressed in transfected cells; host or cells: COS-7 cells
Procedure: One exemplary binding assay is as follows: GHS-R expressing COS-7 cells cultured at a density of 1×10^5 cells per well so that binding is assayed in the range of about 5-8 % binding of the radioactive ligand. For example, the cells can express an endogenous nucleic acid encoding GHS-R or an exogenous nucleic acid encoding GHS-R. Cells transfected with an exogenous nucleic acid encoding GHS-R can be used, e.g., two days, after transfection. Competition binding experiments are performed for 3 hours at 4° C. using 25 pM of ^125I-ghrelin in 0.5 ml of 50 mM HEPES buffer, pH 7.4, supplemented with 1 mM CaCl2, 5 mM MgCl2, and 0.1% (w/v) bovine serum albumin, 40 mg/ml bacitracin. Non-specific binding can be determined as the binding in the presence of […] of unlabeled ghrelin. Cells are washed twice in 0.5 ml of ice-cold buffer and then lysed with 0.5-1 ml of lysis buffer (8 M Urea, 2% NP40 in 3 M acetic acid). After washing and lysis, the bound radioactivity is counted. Assays can be run in duplicate or triplicate, e.g., to provide statistical power.
Values of the dissociation and inhibition constants (Kd and Ki) can be estimated from competition binding experiments using the equation: Kd=IC50-L and Ki=IC50/(1+L/Kd), where L is the concentration of radioactive ligand. Bmax values can be estimated from competition binding experiments using the equation Bmax=B0 IC50/[ligand], where B0 is the specifically bound radioligand.

T1 sequence (Q92847 whole entry, species assumed): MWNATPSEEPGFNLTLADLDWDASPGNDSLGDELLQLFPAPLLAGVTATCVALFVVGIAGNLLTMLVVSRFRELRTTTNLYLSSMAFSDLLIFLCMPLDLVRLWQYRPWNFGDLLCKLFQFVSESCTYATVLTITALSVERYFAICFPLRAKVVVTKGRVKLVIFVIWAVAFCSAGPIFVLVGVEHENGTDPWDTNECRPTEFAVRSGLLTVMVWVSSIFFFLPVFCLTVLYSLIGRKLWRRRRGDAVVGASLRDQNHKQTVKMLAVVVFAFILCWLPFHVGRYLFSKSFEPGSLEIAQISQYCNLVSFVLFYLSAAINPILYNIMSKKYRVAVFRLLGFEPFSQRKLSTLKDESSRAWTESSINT

SMILES | Ki
CCN(CC)CCCS(=O)(=O)N[C@H](COCc1ccccc1)C(=O)N1CCC2(C=Cc3ccccc32)CC1 [Compound 165, (R)-N-(3-(benzyloxy)-1-oxo-1-(spiro[indene-1,4′-piperidine]-1′-yl)propan-2-yl)-3-(diethylamino)propane-1-sulfonamide] | < 100 nM
CCN(CC)CCCS(=O)(=O)N[C@H](COCc1ccccc1)C(=O)c1ccc(-c2ccccc2NC(=O)OC(C)(C)C)cc1 [Compound 166, (R)-{4′-[3-Benzyloxy-2-(3-diethylamino-propane-1-sulfonylamino)-propionyl]-biphenyl-2-yl}-carbamic acid tert-butyl ester] | > 1000 nM
CCN(CC)CCCS(=O)(=O)N[C@H](CCc1ccccc1)C(=O)c1ccc(-c2ccccc2NC(=O)OC(C)(C)C)cc1 [Compound 167, (R)-tert-butyl 4′-(2-(3-(diethylamino)propylsulfonamido)-4-phenylbutanoyl)biphenyl-2-ylcarbamate] | 100 to 1000 nM
CCN(CC)CCCS(=O)(=O)N[C@H](CCc1ccccc1)C(=O)c1ccc(-c2ccccc2CO)cc1 [Compound 168, (R)-3-(diethylamino)-N-(1-(2′-(hydroxymethyl)biphenyl-4-yl)-1-oxo-4-phenylbutan-2-yl)propane-1-sulfonamide] | < 100 nM
CCN(CC)CCCS(=O)(=O)N[C@H](CCc1ccccc1)C(=O)c1ccc(-c2ccccc2N)cc1 [Compound 169] | < 100 nM
CCN(CC)CCCS(=O)(=O)N[C@H](CCc1ccccc1)C(=O)NCc1ccc(-c2ccccc2CNC(C)=O)cc1 [Compound 170, (R)-N-((2′-(acetamidomethyl)biphenyl-4-yl)methyl)-2-(3-(diethylamino)propylsulfonamido)-4-phenylbutanamide] | 100 to 1000 nM
CCN(CC)CCCS(=O)(=O)N[C@H](CCc1ccccc1)C(=O)c1ccc(-c2ccccc2NC(=O)NC)cc1 [Compound 171, (R)-3-(diethylamino)-N-(1-(2′-(3-methylureido)biphenyl-4-yl)-1-oxo-4-phenylbutan-2-yl)propane-1-sulfonamide] | 100 to 1000 nM
CCNC(=O)Nc1ccccc1-c1ccc(C(=O)[C@@H](CCc2ccccc2)NS(=O)(=O)CCCN(CC)CC)cc1 [Compound 172, (R)-3-(diethylamino)-N-(1-(2′-(3-ethylureido)biphenyl-4-yl)-1-oxo-4-phenylbutan-2-yl)propane-1-sulfonamide] | 100 to 1000 nM
CCN(CC)CCCS(=O)(=O)N[C@H](CCc1ccccc1)C(=O)c1ccc(-c2ccccc2COC(=O)NC)cc1 [Compound 173, (R)-(4′-(2-(3-(diethylamino)propylsulfonamido)-4-phenylbutanoyl)biphenyl-2-yl)methyl methylcarbamate] | < 100 nM
CCN(CC)CCCS(=O)(=O)N[C@H](CCc1ccccc1)C(=O)c1ccc(-c2ccccc2C(N)=O)cc1 [Compound 174, (R)-4′-(2-(3-(diethylamino)propylsulfonamido)-4-phenylbutanoyl)biphenyl-2-carboxamide] | 100 to 1000 nM
CCNC(=O)Nc1ccccc1-c1ccc(C(=O)[C@@H](COCc2ccccc2)NS(=O)(=O)CCCN(CC)CC)cc1 [Compound 175, (R)-N-(3-(benzyloxy)-1-(2′-(3-ethylureido)biphenyl-4-yl)-1-oxopropan-2-yl)-3-(diethylamino)propane-1-sulfonamide] | 100 to 1000 nM
CCN(CC)CCCS(=O)(=O)N[C@H](COCc1ccccc1)C(=O)c1ccc(-c2ccccc2NC(=O)NC)cc1 [Compound 176, (R)-N-(3-(benzyloxy)-1-(2′-(3-methylureido)biphenyl-4-yl)-1-oxopropan-2-yl)-3-(diethylamino)propane-1-sulfonamide] | 100 to 1000 nM
CCN(CC)CCCS(=O)(=O)N[C@H](COCc1ccccc1)C(=O)c1ccc(-c2ccccc2C(N)=O)cc1 [Compound 177, (R)-4′-[3-Benzyloxy-2-(3-diethylamino-propane-1-sulfonylamino)-propionyl]-biphenyl-2-carboxylic acid amide] | 100 to 1000 nM
CCN(CC)CCCS(=O)(=O)N[C@H](COCc1ccccc1)C(=O)c1ccc(-c2ccccc2C#N)cc1 [Compound 178, (R)-N-(3-(benzyloxy)-1-(2′-cyanobiphenyl-4-yl)-1-oxopropan-2-yl)-3-(diethylamino)propane-1-sulfonamide] | 100 to 1000 nM
CCN(CC)CCCS(=O)(=O)N[C@H](CCc1ccccc1)C(=O)NCc1ccc(-c2ccccc2C(=O)NC)cc1 [Compound 179, (R)-4′-{[2-(3-Diethylamino-propane-1-sulfonylamino)-4-phenyl-butyrylamino]-methyl}-biphenyl-2-carboxylic acid methylamide] | 100 to 1000 nM
CCN(CC)CCCS(=O)(=O)N[C@H](CCc1ccccc1)C(=O)NCc1ccc(-c2ccccc2CN)cc1 [Compound 180, (R)-N-((2′-(aminomethyl)biphenyl-4-yl)methyl)-2-(3-(diethylamino)propylsulfonamido)-4-phenylbutanamide] | 100 to 1000 nM
CCN(CC)CCCS(=O)(=O)N[C@H](CCc1ccccc1)C(=O)NCc1ccc(-c2ccccc2CC(=O)NC)cc1 [Compound 181, (R)-2-(3-(diethylamino)propylsulfonamido)-N-((2′-(2-(methylamino)-2-oxoethyl)biphenyl-4-yl)methyl)-4-phenylbutanamide] | 100 to 1000 nM
CCN(CC)CCCS(=O)(=O)N[C@H](CCc1ccccc1)C(=O)NCc1ccc(-c2ccccc2CNC(=O)OC(C)(C)C)cc1 [Compound 182, (R)-(4′-{[2-(3-Diethylamino-propane-1-sulfonylamino)-4-phenyl-butyrylamino]-methyl}-biphenyl-2-ylmethyl)-carbamic acid tert-butyl ester] | 100 to 1000 nM
CCN(CC)CCCS(=O)(=O)N[C@H](CCc1ccccc1)C(=O)c1ccc(-c2ccccc2C(=O)O)cc1 [Compound 183, (R)-4′-(2-(3-(diethylamino)propylsulfonamido)-4-phenylbutanoyl)biphenyl-2-carboxylic acid] | 100 to 1000 nM
CCOC(=O)c1ccccc1-c1ccc(C(=O)[C@@H](CCc2ccccc2)NS(=O)(=O)CCCN(CC)CC)cc1 [Compound 184, (R)-ethyl 4′-(2-(3-(diethylamino)propylsulfonamido)-4-phenylbutanoyl)biphenyl-2-carboxylate] | > 1000 nM
CCN(CC)CCCS(=O)(=O)N[C@H](CCc1ccccc1)C(=O)c1ccc(-c2ccccc2CCNC(=O)NC)cc1 [Compound 185, (R)-3-(diethylamino)-N-(1-(2′-(2-(3-methylureido)ethyl)biphenyl-4-yl)-1-oxo-4-phenylbutan-2-yl)propane-1-sulfonamide] | < 100 nM
CCN(CC)CCCS(=O)(=O)N[C@H](CCc1ccccc1)C(=O)c1ccc(-c2ccccc2C(=O)NC)cc1 [Compound 186, (R)-4′-(2-(3-(diethylamino)propylsulfonamido)-4-phenylbutanoyl)-N-methylbiphenyl-2-carboxamide] | 100 to 1000 nM
CCN(CC)CCCS(=O)(=O)N[C@H](CCc1ccccc1)C(=O)NCc1ccc(-c2ccccc2CNC(=O)NC)cc1 [Compound 187, (R)-2-(3-(diethylamino)propylsulfonamido)-N-((2′-((3-methylureido)methyl)biphenyl-4-yl)methyl)-4-phenylbutanamide] | 100 to 1000 nM
CCN(CC)CCCS(=O)(=O)N[C@H](CCc1ccccc1)C(=O)NCc1ccc(-c2ccccc2CNC(=O)NCCO)cc1 [Compound 188, (R)-2-(3-(diethylamino)propylsulfonamido)-N-((2′-((3-(2-hydroxyethyl)ureido)methyl)biphenyl-4-yl)methyl)-4-phenylbutanamide] | < 100 nM
CCN(CC)CCCS(=O)(=O)N[C@H](CCc1ccccc1)C(=O)NCc1ccc(-c2ccccc2C(N)=O)cc1 [Compound 189, (R)-4′-{[2-(3-Diethylamino-propane-1-sulfonylamino)-4-phenyl-butyrylamino]-methyl}-biphenyl-2-carboxylic acid amide] | < 100 nM
CCN(CC)CCCS(=O)(=O)N[C@H](CCc1ccccc1)C(=O)c1ccc(-c2ccccc2CNC(=O)OC(C)(C)C)cc1 [Compound 190, (R)-tert-butyl (4′-(2-(3-(diethylamino)propylsulfonamido)-4-phenylbutanoyl)biphenyl-2-yl)methylcarbamate] | 100 to 1000 nM
CCN(CC)CCCS(=O)(=O)N[C@H](CCc1ccccc1)C(=O)c1ccc(-c2ccccc2CN)cc1 [Compound 191, (R)-N-(1-(2′-(aminomethyl)biphenyl-4-yl)-1-oxo-4-phenylbutan-2-yl)-3-(diethylamino)propane-1-sulfonamide] | 100 to 1000 nM
CCN(CC)CCCS(=O)(=O)N[C@H](CCc1ccccc1)C(=O)c1ccc(-c2ccccc2CNC(C)=O)cc1 [Compound 192, (R)-N-((4′-(2-(3-(diethylamino)propylsulfonamido)-4-phenylbutanoyl)biphenyl-2-yl)methyl)acetamide] | < 100 nM
CCNC(=O)NCc1ccccc1-c1ccc(CNC(=O)[C@@H](CCc2ccccc2)NS(=O)(=O)CCCN(CC)CC)cc1 [Compound 193, (R)-2-(3-(diethylamino)propylsulfonamido)-N-((2′-((3-ethylureido)methyl)biphenyl-4-yl)methyl)-4-phenylbutanamide] | < 100 nM
